Source: PubChem BioAssay (NCI)
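How tested: cells in 96-well plates exposed to compound for 48 hours at five concentrations. The concentration for 50% growth inhibition is given as GI50. TGI marks complete inhibition of growth.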

Tests used:
Assay in all cases: growth of human tumour cells (NCI), 48 h; in the data active = GI50 below about 0.43 µM; inactive = the rest
A498 renal = test system: A498 renal
HCT-15 colon = test system: HCT-15 colon
HS 578T breast = test system: HS 578T breast
CCRF-CEM leukemia = test system: CCRF-CEM leukemia
SK-OV-3 ovarian = test system: SK-OV-3 ovarian
UO-31 renal = test system: UO-31 renal
SK-MEL-2 melanoma = test system: SK-MEL-2 melanoma
UACC-257 melanoma = test system: UACC-257 melanoma
TK-10 renal = test system: TK-10 renal
MALME-3M melanoma = test system: MALME-3M melanoma
CAKI-1 renal = test system: CAKI-1 renal
UACC-62 melanoma = test system: UACC-62 melanoma
LOX IMVI melanoma = test system: LOX IMVI melanoma
DU-145 prostate = test system: DU-145 prostate
K-562 leukemia = test system: K-562 leukemia
OVCAR-3 ovarian = test system: OVCAR-3 ovarian
MDA-MB-435 = test system: MDA-MB-435
T-47D breast = test system: T-47D breast
COLO 205 colon = test system: COLO 205 colon
SF-268 CNS = test system: SF-268 CNS
NCI-H460 lung = test system: NCI-H460 lung
SNB-19 CNS = test system: SNB-19 CNS
SNB-75 CNS = test system: SNB-75 CNS
SK-MEL-5 melanoma = test system: SK-MEL-5 melanoma
SW-620 colon = test system: SW-620 colon
HOP-62 NSCLC = test system: HOP-62 NSCLC
HCT-116 colon = test system: HCT-116 colon
EKVX NSCLC = test system: EKVX NSCLC
OVCAR-8 ovarian = test system: OVCAR-8 ovarian
SK-MEL-28 melanoma = test system: SK-MEL-28 melanoma
KM12 colon = test system: KM12 colon
MOLT-4 leukemia = test system: MOLT-4 leukemia
MDA-MB-231 breast = test system: MDA-MB-231 breast
U251 CNS = test system: U251 CNS
MCF7 breast = test system: MCF7 breast
SN12C renal = test system: SN12C renal
NCI-H226 lung = test system: NCI-H226 lung
SF-295 CNS = test system: SF-295 CNS
786-0 renal = test system: 786-0 renal
OVCAR-4 ovarian = test system: OVCAR-4 ovarian
SF-539 CNS = test system: SF-539 CNS
RPMI-8226 leukemia = test system: RPMI-8226 leukemia
HL-60(TB) leukemia = test system: HL-60(TB) leukemia
HCC-2998 colon = test system: HCC-2998 colon
SR leukemia = test system: SR leukemia
ACHN renal = test system: ACHN renal
HOP-92 NSCLC = test system: HOP-92 NSCLC
NCI-H23 lung = test system: NCI-H23 lung
NCI-H522 lung = test system: NCI-H522 lung
IGROV1 ovarian = test system: IGROV1 ovarian
PC-3 prostate = test system: PC-3 prostate
NCI/ADR-RES ovarian = test system: NCI/ADR-RES ovarian
A549 NSCLC = test system: A549 NSCLC
OVCAR-5 ovarian = test system: OVCAR-5 ovarian
HT29 colon = test system: HT29 colon
M14 melanoma = test system: M14 melanoma
RXF 393 renal = test system: RXF 393 renal
BT-549 breast = test system: BT-549 breast

C=C(C)[C@@H]1CC[C@]2(C(N)=O)CC[C@]3(C)[C@H](CC[C@@H]4[C@@]5(C)C/C(=C/c6cccnc6)C(=O)C(C)(C)[C@@H]5CC[C@]43C)[C@@H]12
33.3 µM: TGI (SF-539 CNS)
41.7 µM: TGI (MALME-3M melanoma)
17.6 µM: TGI (SK-MEL-5 melanoma)
43.8 µM: TGI (OVCAR-3 ovarian)
60.7 µM: TGI (NCI-H226 lung)
64.1 µM: TGI (KM12 colon)
42.3 µM: TGI (SF-295 CNS)
27.6 µM: TGI (COLO 205 colon)
22.1 µM: TGI (RPMI-8226 leukemia)
66.4 µM: TGI (HCT-116 colon)
> 100 µM: TGI (A498 renal) | TGI (HCT-15 colon) | TGI (HS 578T breast) | TGI (CCRF-CEM leukemia) | TGI (SK-OV-3 ovarian) | TGI (UO-31 renal) | TGI (UACC-257 melanoma) | TGI (TK-10 renal) | TGI (DU-145 prostate) | TGI (K-562 leukemia) | TGI (MDA-MB-435) | TGI (T-47D breast) | TGI (SF-268 CNS) | TGI (SNB-19 CNS) | TGI (SNB-75 CNS) | TGI (SW-620 colon) | TGI (HOP-62 NSCLC) | TGI (OVCAR-8 ovarian) | TGI (MOLT-4 leukemia) | TGI (MDA-MB-231 breast) | TGI (MCF7 breast) | TGI (SN12C renal) | TGI (786-0 renal) | TGI (OVCAR-4 ovarian) | TGI (HCC-2998 colon) | TGI (SR leukemia) | TGI (ACHN renal) | TGI (HOP-92 NSCLC) | TGI (NCI-H23 lung) | TGI (IGROV1 ovarian) | TGI (NCI/ADR-RES ovarian) | TGI (A549 NSCLC) | TGI (M14 melanoma) | TGI (BT-549 breast)
52.7 µM: TGI (HT29 colon)
29.9 µM: TGI (UACC-62 melanoma)
39.8 µM: TGI (SK-MEL-2 melanoma)
18.6 µM: TGI (LOX IMVI melanoma)
13.9 µM: TGI (HL-60(TB) leukemia)
39.7 µM: TGI (OVCAR-5 ovarian)
63 µM: TGI (NCI-H522 lung)
21.2 µM: TGI (CAKI-1 renal)
33.2 µM: TGI (SK-MEL-28 melanoma)
67 µM: TGI (EKVX NSCLC)
47.2 µM: TGI (U251 CNS)
inactive: GI50 (A498 renal) 23.8 µM | GI50 (HCT-15 colon) 4.4 µM | GI50 (HS 578T breast) 17.9 µM | GI50 (CCRF-CEM leukemia) 4.48 µM | GI50 (SK-OV-3 ovarian) 10.6 µM | GI50 (UO-31 renal) 3.08 µM | GI50 (SK-MEL-2 melanoma) 12.1 µM | GI50 (UACC-257 melanoma) 7.2 µM | GI50 (TK-10 renal) 24.7 µM | GI50 (MALME-3M melanoma) 7.54 µM | GI50 (CAKI-1 renal) 2.56 µM | GI50 (UACC-62 melanoma) 5.97 µM | GI50 (LOX IMVI melanoma) 5.89 µM | GI50 (DU-145 prostate) 8.36 µM | GI50 (K-562 leukemia) 3.75 µM | GI50 (OVCAR-3 ovarian) 5.91 µM | GI50 (MDA-MB-435) 5.52 µM | GI50 (T-47D breast) 3.99 µM | GI50 (COLO 205 colon) 7.14 µM | GI50 (SF-268 CNS) 7.52 µM | GI50 (NCI-H460 lung) 8.32 µM | GI50 (SNB-19 CNS) 9.22 µM | GI50 (SNB-75 CNS) 8.63 µM | GI50 (SK-MEL-5 melanoma) 5.42 µM | GI50 (SW-620 colon) 8.82 µM | GI50 (HOP-62 NSCLC) 12.4 µM | GI50 (HCT-116 colon) 3.96 µM | GI50 (EKVX NSCLC) 4.99 µM | GI50 (OVCAR-8 ovarian) 9.96 µM | GI50 (SK-MEL-28 melanoma) 8.81 µM | GI50 (KM12 colon) 4.67 µM | GI50 (MOLT-4 leukemia) 3.14 µM | GI50 (MDA-MB-231 breast) 15.2 µM | GI50 (U251 CNS) 7.3 µM | GI50 (MCF7 breast) 3.49 µM | GI50 (SN12C renal) 5.88 µM | GI50 (NCI-H226 lung) 6.9 µM | GI50 (SF-295 CNS) 3.84 µM | GI50 (786-0 renal) 14.7 µM | GI50 (OVCAR-4 ovarian) 4.28 µM | GI50 (SF-539 CNS) 10.9 µM | GI50 (RPMI-8226 leukemia) 2.44 µM | GI50 (HL-60(TB) leukemia) 3.15 µM | GI50 (HCC-2998 colon) 9.04 µM | GI50 (SR leukemia) 5.1 µM | GI50 (ACHN renal) 4.96 µM | GI50 (HOP-92 NSCLC) 3.21 µM | GI50 (NCI-H23 lung) 14.7 µM | GI50 (NCI-H522 lung) 6.77 µM | GI50 (IGROV1 ovarian) 14 µM | GI50 (PC-3 prostate) 2.36 µM | GI50 (NCI/ADR-RES ovarian) 7.13 µM | GI50 (A549 NSCLC) 3.84 µM | GI50 (OVCAR-5 ovarian) 12.7 µM | GI50 (HT29 colon) 6.03 µM | GI50 (M14 melanoma) 8.05 µM | GI50 (RXF 393 renal) 3.41 µM | GI50 (BT-549 breast) 8.89 µM
25.6 µM: TGI (PC-3 prostate)
25.1 µM: TGI (NCI-H460 lung)
16.4 µM: TGI (RXF 393 renal)
